Assay results from patent publication US6787359B1, “Gene transfer methods” (Takara Shuzo Co., Ltd., priority 1998, dated 2004).

Experiments:
HL-60 cells = format: cell-based, human; conditions: no washing
Method: (§1) Recombinant retrovirus-producer cells obtained by introducing a retrovirus vector plasmid pLEIN into φCRIP cells were cultured in DMEM containing 10% CS. When the cells grew to semi-confluence in a 10-cm plate, the medium was changed to 7 ml of RPMI 1640 containing 10% FCS or 7 ml of RPMI 1640 containing 5 mM sodium butyrate (Nacalai Tesque) and 10% FCS. After the cells were cultured for 24 hours, supernatants were filtered through 0.45 μm filters to obtain virus supernatants. The titer of the virus supernatant was determined as described in Example 2. The titer of the virus supernatant without sodium butyrate was 3.3×10^4 cfu/ml, whereas the titer of the virus supernatant containing 5 mM sodium butyrate was 2×10^6 cfu/ml.
HL-60 cells were used as target cells. 0.5 ml of the above-mentioned virus supernatant was added to each well of a plate coated with CH-296 as described in Example 12. The plate was incubated at 37° C. for 3 hours for contacting and binding the virus particles with CH-296. After incubation, the plate was […]. 0.5 ml of RPMI 1640 medium supplemented with 10% FCS containing 5×10^4 HL-60 cells was added to the well. As a control, 5×10^4 HL-60 cells were suspended in 0.5 ml of the above-mentioned virus supernatant and then immediately added to the plate coated with CH-296. These plates were incubated at 37° C. overnight to allow the virus to infect cells. After the incubation, 1 ml of RPMI 1640 medium containing 10% FCS was added to the well. The plate was incubated for additional 48 hours. The cell number was then counted.

NIH/3T3 cells = assay: Titer of virus supernatant of producer cells cultured with sodium butyrate; format: cell-based; conditions: φCRIP/pLEIN producer cells cultured 24 hours with 5 mM sodium butyrate; without: 3.3×10^4 cfu/ml
Method: The titer of the virus supernatant was measured according to a standard method [J. Virol., 62:1120-1124 (1988)] in which the efficiency of transferring a neomycin phosphotransferase gene into NIH/3T3 cells (ATCC CRL-1658) is used as an index. The number of infectious particles contained in 1 ml of the supernatant (cfu/ml) was calculated. The amount of the virus supernatant to be added in the experiments hereinbelow was determined based on the calculated value, i.e., the titer of the supernatant.
as §1

L1210 cells [1] = assay: Eco-EGFP gene transfer on plates with covalently immobilized CH-271 and (Mannose)9-(GlucNAc)2-Asn; format: cell-based, mouse; conditions: wells with sugar chain and CH-271 immobilized
Method: A microplate to which CH-271 and (Mannose)9-(GlucNAc)2-Asn were immobilized through covalent bonds was prepared. […] 50 μl each of solutions containing 2% BSA or 80 μg/ml of CH-271 as well as (Mannose)9-(GlucNAc)2-Asn at a varying concentration was added to each well of the activated 96-well Carboplate. The plate was subjected to immobilization reaction at 37° C. for 2 hours. The plate was blocked using 0.2% glycine solution at 4° C. for 15 hours and then used for the following gene transfer experiments.
10^3 L1210 cells and 0.1 ml Eco-EGFP virus supernatant (10^6 cfu/ml) were added to the well of the microplate. After the plate was incubated for 48 hours, 0.1 ml of fresh RPMI 1640 medium containing FCS, penicillin and streptomycin was added to the well. The plate was incubated for additional 24 hours. The cells were collected and washed. The gene transfer efficiency was calculated as described in Example 4.

[2] = system: mouse leukemia L1210 cells; assay: Gene transfer with PM5neo virus on coated plates, G418-resistant cells by WST-1 absorbance; format: cell-based; conditions: for Absorbance difference (450 nm-650 nm), G418-resistant cells: Experiment 2
Method: 50 μl of […] solution of H-271, H-296, C-274, CH-271, CH-296, ColV, human basic fibroblast growth factor (bFGF; Progen), tenascin (Gibco) or epidermal growth factor (EGF; Takara Shuzo), or 50 μl of 2% bovine serum albumin (BSA, Sigma) was added to each well of a 96-well non-treated microplate for cell culture (Falcon). The plate was allowed to stand at 4° C. overnight and then washed twice with phosphate buffered saline (PBS; Roman Kogyo). Alternatively, after the plate was treated as described above, 0.1 ml of 4 mg/ml solution of 1-ethyl-3-dimethylaminopropylcarbodiimide hydrochloride (Sigma) in sterile pure water was dispensed to each well. The reaction was allowed to proceed at 37° C. for 2 hours. The plate was washed extensively with pure water to prepare a carbodiimide-treated plate. These plates were stored at 4° C. until viral infection experiments were conducted.
10^4 mouse leukemia L1210 cells (ATCC CCL-219), which had been grown in RPMI 1640 medium (Bio Whittaker) supplemented with 10% FCS, 50 units/ml penicillin and 50 μg/ml streptomycin, and 50 μl of PM5neo virus supernatant (10^4 cfu/ml) were added to the well of the microplate. After the plate was incubated for 24 hours, the medium was changed to the same medium containing G418 (Gibco) at a final concentration of 0.75 mg/ml, and the plate was then incubated for additional 48 hours. G418-resistance cells were assessed according to the method as described in S. Kim et al. [Gene Therapy, 3:1018-1020 (1996)] with a partial modification in which color developed using Premix WST-1 reagent (Takara Shuzo) was measured as absorbance at 450 nm. […] Absorbance at 450 nm and 650 nm was then measured using a microplate reader, and the difference (450 nm-650 nm) was calculated. The value obtained using a plate coated with 2% BSA without carbodiimide treatment was defined as background.

[3] = system: mouse leukemia L1210 cells; assay: Effect of sugar chain-cleaving enzymes on CH-271/laminin plates, PM5neo gene transfer, G418-resistant cells; format: cell-based
Method: A 96-well microplate was coated using 50 μl/well of a mixture containing 5 μg/ml of mouse laminin and 80 μg/ml of CH-271 as described in Example 5. Effects of treatment of the plate with various enzymes having activities of cleaving sugar chains on gene transfer efficiency were examined.
Plates were treated with enzymes as follows: Enzyme solutions containing 500 mU/ml O-glycanase (endo-α-N-acetylgalactosaminidase, Seikagaku Corp.), 500 mU/ml endoglycosidase H (endo-β-N-acetylglucosaminidase H, Seikagaku Corp.), 250 mU/ml endo-β-galactosidase (Seikagaku Corp.) and 2 mU/ml α-mannosidase (Seikagaku Corp.) in 50 mM citrate-phosphate buffer (pH 5.0) were prepared. An enzyme solution containing 250 mU/ml glycopeptidase F (peptide: N-glycosidase F, Takara Shuzo) in 100 mM tris-hydrochloride buffer (pH 8.6) was prepared. 50 μl each of the enzyme solutions was dispensed in each well for reacting at 37° C. for 20 hours. The plate was then washed three times with PBS and then used for viral infection experiments. 10^4 mouse leukemia L1210 cells grown in RPMI 1640 medium supplemented with 10% FCS, 50 units/ml penicillin and […], and 50 μl of PM5neo virus supernatant (10^4 cfu/ml) were added to each well of the microplate. The plate was incubated for 24 hours. […] G418-resistance cells were assessed as described in Example 3.

L1210 cells [4] = assay: Eco-EGFP gene transfer with laminin and virus-binding substance, flow cytometry; format: cell-based, mouse; conditions: no CH-296/CH-271
Method: Mouse laminin (Gibco) or human laminin (Takara Shuzo) was used in combination with a functional substance having an activity of binding to a virus to carry out gene transfer experiment. A 24-well non-treated microplate for cell culture (Falcon) used in the experiment was coated with these functional substances according to the following two methods.
The cocktail method: A mixture of two functional substances is added to the plate. The plate is allowed to stand at 4° C. overnight. The plate is blocked with 2% BSA at 37° C. for 20 minutes and then washed with PBS.
The pre-coating method: A solution of a functional substance having an activity of binding to a virus is added to the plate. The plate is allowed to stand at 4° C. overnight. The solution is removed. A laminin solution is added to the plate. The plate is incubated at 37° C. for 2 hours, blocked with 2% BSA, and then washed with PBS.
0.5 ml of the solution of the functional substance was used to coat each well. 10^5 L1210 cells and 0.5 ml of Eco-EGFP virus supernatant (10^5 cfu/ml) were added to the well. The plate was incubated for 24 hours. After incubation, the cells were collected by using a cell detachment buffer (Bio Whittaker) and washed. EGFP-expressing cells were analyzed by flow cytometry using FACSVantage (Becton Dickinson) at an excitation wavelength of 488 nm and an emission wavelength of 515-545 nm. The gene transfer efficiency (the ratio of EGFP-expressing cells to total cells) was calculated.

[5] = Control: cells suspended in supernatant with sodium butyrate, added to CH-296 plate
[6] = plate treated with carbodiimide

Compound: CCCC(=O)[O-].[Na+] [sodium butyrate]
- Cell number (cells/plate) (HL-60 cells; [5]): 4.0 x 10^5 cells/plate
- Gene transfer efficiency (%) (HL-60 cells; [5]): 35.46%
- Viable cell number relative to supernatant without sodium butyrate (HL-60 cells; control group): one fourth
- Titer of the virus supernatant (NIH/3T3 cells): 2×10^6 cfu/ml

Compound: (Mannose)9-(GlucNAc)2-Asn
- Gene transfer efficiency (in words) (L1210 cells [1]): increased depending on the concentration of sugar chain used

Compound: Tenascin: tenascin (Gibco)
- Absorbance difference (450 nm-650 nm), G418-resistant cells [2, 6]: 0.323 ± 0.037
- Absorbance difference (450 nm-650 nm), G418-resistant cells ([2]; plate untreated): 0.060 ± 0.021
- Appearance of G418-resistant cells (in words) ([2]; carbodiimide treatment carried out): increased

Compound: bFGF: human basic fibroblast growth factor (Progen)
- Absorbance difference (450 nm-650 nm), G418-resistant cells [2, 6]: 0.580 ± 0.046
- Absorbance difference (450 nm-650 nm), G418-resistant cells ([2]; plate untreated): 0.425 ± 0.014
- Gene transfer efficiency (in words) ([2]; known virus-binding substances, Table 1): increase in gene transfer efficiency was observed

Compound: laminin
- Gene transfer-promoting effect of laminin after enzyme treatment (in words) ([3]; treatment of the plate with endoglycosidase H): completely abolished
- Gene transfer efficiency after enzyme treatment (in words) ([3]; treatment of the plate with α-mannosidase or glycopeptidase F): decreased the gene transfer efficiency in some degree
- Gene transfer efficiency (L1210 cells [4]; laminin 5 μg/ml alone): 4.09%
- Gene transfer efficiency (L1210 cells [4]; laminin 10 μg/ml alone): 6.76%
- Gene transfer efficiency (L1210 cells [4]; laminin 20 μg/ml alone): 6.89%
